Data from patent US11000033B2, “Ketone or oxime compound, and herbicide” (NISSAN CHEMICAL CORPORATION, priority 2014, dated 2021).

Columns and labels:
Assay type in all cases: in vivo
[1] = test system: Echinochloa crus-galli var. crus-galli; test: Test Example 5: herbicidal effect by foliage application, plastic box (symbol H); settings: 320 g/ha, 3 weeks after application
How it was run: (§1)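 Greenhouse foliar test: seedlings at 14 days, grown 25° C. to 30° C. in sterilized diluvial soil; compound applied as an aqueous dilution of an emulsion; response read 3 weeks after spraying.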

Galium spurium = test: Test Example 5: herbicidal effect by foliage application, plastic box (symbol Q); settings: 320 g/ha, 3 weeks after application
How it was run: as §1

Leptochloa chinensis = test: Test Example 3: herbicidal effect by foliage application, Wagner pot (symbol D); settings: application herbicide amount 320 g/ha
How it was run: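 Plants sown in submerged alluvial soil (water depth 0.1–0.5 cm) in a 25–30 °C greenhouse and grown 14 days. An emulsion of the compound diluted in water to a set herbicide amount was sprayed uniformly on foliage. Effect on each plant scored 3 weeks after application.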

Chenopodium album = test: Test Example 5: herbicidal effect by foliage application, plastic box (symbol O); settings: 320 g/ha, 3 weeks after application
How it was run: as §1

Stellaria media = test: Test Example 5: herbicidal effect by foliage application, plastic box (symbol P); settings: 320 g/ha, 3 weeks after application
How it was run: as §1

Avena fatua [2] = test: Test Example 5: herbicidal effect by foliage application, plastic box (symbol I); settings: 320 g/ha, 3 weeks after application
How it was run: as §1

Avena fatua [3] = test: Test Example 4: herbicidal effect by soil treatment (symbol I); settings: application herbicide amount 320 g/ha
How it was run: (§2)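 Seeds were sown in sterilized diluvial soil, covered with about 1.5 cm of soil, and the soil surface was sprayed with a water-diluted emulsion of the compound at a predetermined rate. Plants grew in a greenhouse at 25° C. to 30° C.; effects were scored visually 3 weeks after application.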

Apera spica-venti [4] = test: Test Example 4: herbicidal effect by soil treatment (symbol L); settings: application herbicide amount 320 g/ha
How it was run: as §2

Digitaria ciliaris = test: Test Example 5: herbicidal effect by foliage application, plastic box (symbol F); settings: 320 g/ha, 3 weeks after application
How it was run: as §1

Scirpus juncoides = test: Test Example 1: herbicidal activity, application before weed generation in submerged conditions (symbol B); settings: application herbicide amount 320 g/ha
How it was run: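 Weed control was rated three weeks after treatment on a 0–5 scale, from 5% or lower up to 90% or more. Pre-emergence water-surface application of diluted emulsion at a predetermined rate was made on the day of sowing, in flooded (4 cm water) pots containing rice seedlings, kept at 25–30 °C under glass.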

soybean = test: Test Example 4: effect on crop by soil treatment (symbol d); settings: application herbicide amount 320 g/ha
How it was run: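 Crop seed is sown in spots together with several weed species in a box of sterilized diluvial soil. It is covered by about 1.5 cm of soil and kept in a greenhouse held between 25° C. and 30° C.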

beet = test: Test Example 5: effect on crop by foliage application, plastic box (symbol f); settings: 320 g/ha, 3 weeks after application
How it was run: (§3)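 Crop and weed seeds sown in spots in sterilized diluvial soil in plastic boxes and covered with about 1.5 cm soil. Plants raised in a greenhouse at 25° C. to 30° C. for foliar application.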

rapeseed = test: Test Example 5: effect on crop by foliage application, plastic box (symbol g); settings: 320 g/ha, 3 weeks after application
How it was run: as §3

Amaranthus retroflexus = test: Test Example 4: herbicidal effect by soil treatment (symbol N); settings: application herbicide amount 320 g/ha
How it was run: as §2

Setaria viridis = test: Test Example 4: herbicidal effect by soil treatment (symbol G); settings: application herbicide amount 320 g/ha
How it was run: as §2

Abutilon theophrasti = test: Test Example 5: herbicidal effect by foliage application, plastic box (symbol M); settings: 320 g/ha, 3 weeks after application
How it was run: as §1

Apera spica-venti [5] = test: Test Example 5: herbicidal effect by foliage application, plastic box (symbol L); settings: 320 g/ha, 3 weeks after application
How it was run: as §1

Veronica persica = test: Test Example 5: herbicidal effect by foliage application, plastic box (symbol R); settings: 320 g/ha, 3 weeks after application
How it was run: as §1

Row | Structure (SMILES) | H: Echinochloa crus-galli var. crus-galli, herbicidal effect (criteria of Test Example 1) [1] | Q: Galium spurium, herbicidal effect (criteria of Test Example 1) (Galium spurium) | herbicidal effect on D (Leptochloa chinensis), grade 0-5 (Leptochloa chinensis) | O: Chenopodium album, herbicidal effect (criteria of Test Example 1) (Chenopodium album) | P: Stellaria media, herbicidal effect (criteria of Test Example 1) (Stellaria media) | I: Avena fatua, herbicidal effect (criteria of Test Example 1) (Avena fatua [2]) | Herbicidal effect grade, I: Avena fatua (Avena fatua [3]) | Herbicidal effect grade, L: Apera spica-venti (Apera spica-venti [4]) | F: Digitaria ciliaris, herbicidal effect (criteria of Test Example 1) (Digitaria ciliaris) | Herbicidal effect grade, B: Scirpus juncoides (Scirpus juncoides) | Effect on crop grade, d: soybean (soybean) | f: beet, effect on crop (criteria of Test Example 1) (beet) | g: rapeseed, effect on crop (criteria of Test Example 1) (rapeseed) | Herbicidal effect grade, N: Amaranthus retroflexus (Amaranthus retroflexus) | Herbicidal effect grade, G: Setaria viridis (Setaria viridis) | M: Abutilon theophrasti, herbicidal effect (criteria of Test Example 1) (Abutilon theophrasti) | L: Apera spica-venti, herbicidal effect (criteria of Test Example 1) (Apera spica-venti [5]) | R: Veronica persica, herbicidal effect (criteria of Test Example 1) (Veronica persica)
1 | CC(=O)CC1CC(O)=C(c2c(C)cc(-c3ccccc3)cc2C)C1=O (stereo not shown) [7-004] | 5 (Herbicidal ratio of 90% or more (almost completely withered)) | 0 (Herbicidal ratio of 5% or lower (almost no effect)) | 5 (Herbicidal ratio of 90% or more (almost completely withered)) | 2 (Herbicidal ratio of 20% or higher and lower than 40%) | 0 (Herbicidal ratio of 5% or lower (almost no effect)) | 2 (Herbicidal ratio of 20% or higher and lower than 40%) | 0 (Herbicidal ratio of 5% or lower (almost no effect)) | 5 (Herbicidal ratio of 90% or more (almost completely withered)) | 5 (Herbicidal ratio of 90% or more (almost completely withered)) | 3 (Herbicidal ratio of 40% or higher and lower than 70%) | 0 (Herbicidal ratio of 5% or lower (almost no effect)) | 0 (Herbicidal ratio of 5% or lower (almost no effect)) | 3 (Herbicidal ratio of 40% or higher and lower than 70%) | 2 (Herbicidal ratio of 20% or higher and lower than 40%) | 5 (Herbicidal ratio of 90% or more (almost completely withered)) | 0 (Herbicidal ratio of 5% or lower (almost no effect)) | 5 (Herbicidal ratio of 90% or more (almost completely withered)) | –
2 | CON=C(C)CC1CC(OC(=O)COc2ccccc2)=C(c2c(C)cc(-c3ccc(Cl)cc3Cl)cc2C)C1=O (stereo not shown) [6-092] | 4 (Herbicidal ratio of 70% or higher and lower than 90%) | 4 (Herbicidal ratio of 70% or higher and lower than 90%) | 5 (Herbicidal ratio of 90% or more (almost completely withered)) | 5 (Herbicidal ratio of 90% or more (almost completely withered)) | 3 (Herbicidal ratio of 40% or higher and lower than 70%) | 5 (Herbicidal ratio of 90% or more (almost completely withered)) | 3 (Herbicidal ratio of 40% or higher and lower than 70%) | – | 5 (Herbicidal ratio of 90% or more (almost completely withered)) | 0 (Herbicidal ratio of 5% or lower (almost no effect)) | 0 (Herbicidal ratio of 5% or lower (almost no effect)) | 0 (Herbicidal ratio of 5% or lower (almost no effect)) | 4 (Herbicidal ratio of 70% or higher and lower than 90%) | 0 (Herbicidal ratio of 5% or lower (almost no effect)) | 5 (Herbicidal ratio of 90% or more (almost completely withered)) | 0 (Herbicidal ratio of 5% or lower (almost no effect)) | 3 (Herbicidal ratio of 40% or higher and lower than 70%) | 4 (Herbicidal ratio of 70% or higher and lower than 90%)
